Among the data in ChEMBL document CHEMBL5252519, “Design strategies, structure activity relationship and mechanistic insights for purines as kinase inhibitors” (Eur J Med Chem, 2016) are IC50, inhibition and EC50 values, retold here.

Data set [1] concerns the target Cyclin-dependent kinase 2/cyclin A (Homo sapiens, UniProt P24941). In words: Inhibition of human CDK2/cyclinA using histone H1 as substrate incubated for 30 mins in presence of gamma[32P]ATP by phosphoimaging analysis. The format is protein-complex assay.
In the next data set the test system is HMEC. In words: Inhibition of cell migration in HMECs at 10 uM measured after 16 hrs by fluorescence based assay. The format is functional. Particulars: Homo sapiens.
A short description of data set [2]: Antiproliferative activity against HUVEC cells assessed as cell growth inhibition measured after 72 hrs by crystal violet staining based analysis. The data set is classed as toxicity. As to conditions: human.
Data set [3] deals with T1, Phosphatidylinositol 4,5-bisphosphate 3-kinase catalytic subunit delta isoform (Homo sapiens, UniProt O00329).
T1 sequence (O00329 whole entry): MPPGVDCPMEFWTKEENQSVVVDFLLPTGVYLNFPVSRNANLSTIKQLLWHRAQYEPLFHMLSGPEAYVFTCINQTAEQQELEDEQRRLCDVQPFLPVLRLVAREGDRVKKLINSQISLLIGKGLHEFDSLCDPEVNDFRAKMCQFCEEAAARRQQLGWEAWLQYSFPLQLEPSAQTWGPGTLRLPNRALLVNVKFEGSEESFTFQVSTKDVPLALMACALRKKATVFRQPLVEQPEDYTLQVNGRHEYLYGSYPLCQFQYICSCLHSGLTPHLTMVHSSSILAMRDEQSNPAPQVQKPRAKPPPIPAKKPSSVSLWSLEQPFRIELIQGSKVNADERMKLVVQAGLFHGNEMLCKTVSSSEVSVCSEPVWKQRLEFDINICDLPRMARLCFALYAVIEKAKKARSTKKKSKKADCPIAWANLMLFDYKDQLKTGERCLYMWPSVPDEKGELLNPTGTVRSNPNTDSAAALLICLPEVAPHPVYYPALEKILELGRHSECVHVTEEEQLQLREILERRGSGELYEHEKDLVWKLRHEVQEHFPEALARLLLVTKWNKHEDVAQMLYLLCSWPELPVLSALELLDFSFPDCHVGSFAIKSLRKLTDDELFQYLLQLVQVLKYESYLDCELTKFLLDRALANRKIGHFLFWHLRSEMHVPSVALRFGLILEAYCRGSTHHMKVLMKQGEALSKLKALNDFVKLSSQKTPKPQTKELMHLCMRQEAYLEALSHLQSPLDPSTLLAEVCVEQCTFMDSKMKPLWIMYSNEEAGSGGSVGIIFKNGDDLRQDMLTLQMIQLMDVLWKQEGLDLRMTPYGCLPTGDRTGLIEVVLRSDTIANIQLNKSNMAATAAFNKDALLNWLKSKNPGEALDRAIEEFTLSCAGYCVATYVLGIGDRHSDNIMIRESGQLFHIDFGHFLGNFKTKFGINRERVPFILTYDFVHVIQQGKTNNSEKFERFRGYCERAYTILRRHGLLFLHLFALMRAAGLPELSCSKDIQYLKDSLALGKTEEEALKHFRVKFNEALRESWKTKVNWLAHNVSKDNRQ
In words: Inhibition of human PI3K-delta using PIP2 as substrate in presence of gamma[32P]ATP.

Another data set deals with MCF7. The data set can be described thus: Cytotoxicity against human MCF7 cells incubated for 48 hrs by SRB assay. As to conditions: MCF7, 48 h. The data set is classed as functional, cell-based.
Data set [4] addresses T1, Phosphatidylinositol 4,5-bisphosphate 3-kinase catalytic subunit delta isoform. In words: Inhibition of PI3K-delta (unknown origin).
In data set [5] the target is Tyrosine-protein kinase SYK (Homo sapiens, UniProt P43405). In words: Inhibition of SYK (unknown origin) using biotinylated EDPDYEWPSA as substrate incubated for 30 mins in presence of 33P-ATP by Scintillation Proximity Assay.
The target of the next data set is Janus Kinase (JAK) (Homo sapiens, UniProt P52333+P23458+O60674+P29597). The data set can be described thus: Inhibition of JAK (unknown origin). The data set is classed as protein assay.
In another data set the target is CDK9/Cyclin T (Homo sapiens, UniProt P50750). The data set can be described thus: Inhibition of CDK9/Cyclin T (unknown origin) using (YSPTSPS)3 peptide as substrate incubated for 30 mins in presence of gamma[33P]ATP by digital imaging analysis. The format is protein-complex assay.
Chain of CDK9/Cyclin T (O60563 whole entry, canonical isoform): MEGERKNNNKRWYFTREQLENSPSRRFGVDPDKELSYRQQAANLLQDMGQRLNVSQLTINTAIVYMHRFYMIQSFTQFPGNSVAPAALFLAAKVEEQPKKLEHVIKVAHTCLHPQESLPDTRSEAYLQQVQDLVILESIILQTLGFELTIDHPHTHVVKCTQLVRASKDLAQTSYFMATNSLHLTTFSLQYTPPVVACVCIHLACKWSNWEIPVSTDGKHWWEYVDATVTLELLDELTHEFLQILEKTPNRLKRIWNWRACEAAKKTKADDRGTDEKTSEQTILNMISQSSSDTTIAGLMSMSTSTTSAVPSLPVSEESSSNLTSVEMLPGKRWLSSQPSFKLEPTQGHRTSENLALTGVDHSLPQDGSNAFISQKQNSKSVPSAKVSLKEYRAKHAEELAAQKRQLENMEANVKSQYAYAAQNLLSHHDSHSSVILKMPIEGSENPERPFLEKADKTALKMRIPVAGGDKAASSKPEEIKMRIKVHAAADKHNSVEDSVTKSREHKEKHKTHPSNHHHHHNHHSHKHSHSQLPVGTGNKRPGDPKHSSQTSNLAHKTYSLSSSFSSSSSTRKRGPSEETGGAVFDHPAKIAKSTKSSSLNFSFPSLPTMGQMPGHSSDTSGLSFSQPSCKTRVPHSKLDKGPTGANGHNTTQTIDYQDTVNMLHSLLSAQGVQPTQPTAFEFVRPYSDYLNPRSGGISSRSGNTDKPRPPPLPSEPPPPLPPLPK
Chain of CDK9/Cyclin T (P50750 whole entry, canonical isoform): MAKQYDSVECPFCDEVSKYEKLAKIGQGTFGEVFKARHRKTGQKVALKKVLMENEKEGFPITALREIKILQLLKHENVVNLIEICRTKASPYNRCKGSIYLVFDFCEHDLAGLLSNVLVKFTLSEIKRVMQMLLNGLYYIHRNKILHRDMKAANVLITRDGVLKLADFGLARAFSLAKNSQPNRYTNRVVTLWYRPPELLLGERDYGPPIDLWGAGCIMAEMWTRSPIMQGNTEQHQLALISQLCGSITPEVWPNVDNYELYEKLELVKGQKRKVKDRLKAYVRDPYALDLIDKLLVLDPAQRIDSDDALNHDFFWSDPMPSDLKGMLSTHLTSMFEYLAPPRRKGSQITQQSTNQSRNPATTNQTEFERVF
Chain of CDK9/Cyclin T (O60583 whole entry, further chain, canonical isoform): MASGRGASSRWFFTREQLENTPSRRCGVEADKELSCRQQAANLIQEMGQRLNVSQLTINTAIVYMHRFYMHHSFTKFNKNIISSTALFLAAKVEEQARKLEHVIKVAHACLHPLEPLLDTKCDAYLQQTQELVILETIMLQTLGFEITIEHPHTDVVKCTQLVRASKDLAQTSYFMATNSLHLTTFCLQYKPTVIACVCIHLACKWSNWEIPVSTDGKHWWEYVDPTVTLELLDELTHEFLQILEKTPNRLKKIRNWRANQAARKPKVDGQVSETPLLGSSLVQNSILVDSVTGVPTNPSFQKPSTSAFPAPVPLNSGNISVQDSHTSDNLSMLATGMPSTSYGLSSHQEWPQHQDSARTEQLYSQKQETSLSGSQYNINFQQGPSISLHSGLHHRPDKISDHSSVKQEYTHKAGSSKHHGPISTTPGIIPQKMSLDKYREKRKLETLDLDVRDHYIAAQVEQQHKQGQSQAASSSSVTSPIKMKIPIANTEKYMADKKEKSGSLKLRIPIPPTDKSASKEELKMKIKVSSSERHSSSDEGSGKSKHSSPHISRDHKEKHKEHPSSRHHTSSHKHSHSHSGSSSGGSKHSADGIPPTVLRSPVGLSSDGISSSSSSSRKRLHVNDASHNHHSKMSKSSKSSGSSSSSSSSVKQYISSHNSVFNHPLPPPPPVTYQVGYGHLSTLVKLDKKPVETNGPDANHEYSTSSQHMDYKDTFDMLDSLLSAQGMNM
Data set [6] addresses Phosphatidylinositol 4,5-bisphosphate 3-kinase catalytic subunit alpha isoform (Homo sapiens, UniProt P42336). The data set can be described thus: Inhibition of PI3K-p110alpha (unknown origin) incubated for 30 mins by fluorescence polarization assay.
For data set [7], the target named is Cyclin-dependent kinase 2/cyclin E (Homo sapiens, UniProt P24941). In words: Inhibition of CDK2/Cyclin E (unknown origin) using histone as substrate incubated for 30 mins in presence of gamma[33P]ATP by digital imaging analysis. The format is protein-complex assay.
Data set [8] addresses Serine/threonine-protein kinase mTOR (Homo sapiens, UniProt P42345). The data set can be described thus: Inhibition of mTOR (unknown origin).

Chain of Phosphatidylinositol 4,5-bisphosphate 3-kinase catalytic subunit alpha isoform (P42336 whole entry, canonical isoform): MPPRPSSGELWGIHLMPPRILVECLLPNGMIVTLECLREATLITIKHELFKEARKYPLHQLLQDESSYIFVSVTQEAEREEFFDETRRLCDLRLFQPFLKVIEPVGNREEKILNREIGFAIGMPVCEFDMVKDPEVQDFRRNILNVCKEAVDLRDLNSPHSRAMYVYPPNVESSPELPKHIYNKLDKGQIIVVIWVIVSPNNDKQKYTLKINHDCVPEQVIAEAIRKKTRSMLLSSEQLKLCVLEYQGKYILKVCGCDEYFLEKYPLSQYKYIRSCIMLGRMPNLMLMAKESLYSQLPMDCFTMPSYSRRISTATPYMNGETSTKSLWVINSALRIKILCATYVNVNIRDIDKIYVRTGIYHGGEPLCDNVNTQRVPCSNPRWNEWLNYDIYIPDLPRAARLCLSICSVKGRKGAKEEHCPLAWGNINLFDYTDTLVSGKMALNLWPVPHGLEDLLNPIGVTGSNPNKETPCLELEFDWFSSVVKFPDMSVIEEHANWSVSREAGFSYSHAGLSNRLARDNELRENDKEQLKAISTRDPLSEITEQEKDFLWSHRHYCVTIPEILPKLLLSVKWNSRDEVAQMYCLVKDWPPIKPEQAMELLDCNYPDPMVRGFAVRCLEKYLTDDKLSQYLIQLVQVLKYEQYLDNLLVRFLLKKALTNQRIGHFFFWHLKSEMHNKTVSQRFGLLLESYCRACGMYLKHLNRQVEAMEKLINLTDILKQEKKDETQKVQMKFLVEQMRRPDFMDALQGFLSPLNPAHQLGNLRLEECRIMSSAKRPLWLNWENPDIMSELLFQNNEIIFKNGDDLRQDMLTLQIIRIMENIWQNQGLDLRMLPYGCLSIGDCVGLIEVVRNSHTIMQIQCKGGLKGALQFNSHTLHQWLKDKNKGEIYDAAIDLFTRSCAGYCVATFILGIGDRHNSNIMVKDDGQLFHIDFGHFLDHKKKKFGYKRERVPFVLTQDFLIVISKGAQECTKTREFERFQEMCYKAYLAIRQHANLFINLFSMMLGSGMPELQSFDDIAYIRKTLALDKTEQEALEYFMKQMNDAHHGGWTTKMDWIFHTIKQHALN

As for `CC(C)C(CO)Nc1nc(Nc2cccc(Cl)c2)c2ncn(C(C)C)c2n1` (centres undefined), in data set [1], the IC50 was below 0.05 µM.

Turning to `CC[C@H](CO)Nc1nc(NCc2cccc(OC)c2O)c2ncn(C(C)C)c2n1`, the inhibition at 10 µM in the data set with HMEC was determined as 54%. Besides, the EC50 at 72 h in data set [2] is 7.12 µM.

Compound `CC[C@@H](CO)Nc1nc(NCc2cccc(OC)c2O)c2ncn(C(C)C)c2n1` had an inhibition at 10 µM in the data set on HMEC of 14%. Besides, the EC50 at 72 h in data set [2] was 2.85 µM.

For the compound `CC(C)[C@H](CO)Nc1nc(Nc2ccc(Cl)c(N)c2)c2ncn(C(C)C)c2n1`, the IC50 in data set [1] is below 0.05 µM.

As to `CC[C@H](Nc1ncnc2[nH]cnc12)c1nc2cccc(Cl)c2c(=O)n1-c1cc(F)cc(F)c1`, the concentration for half-maximal inhibition (IC50) in [3] stood at 0.045 µM.

For the compound `CCC(Nc1ncnc2[nH]cnc12)c1nc2cccc(Cl)c2c(=O)n1-c1c(F)cccc1F` (centres undefined), the half-inhibitory concentration (IC50) in [3] came out at 0.026 µM.

For the compound `CCC(Nc1ncnc2[nH]cnc12)c1nc2cccc(C)c2c(=O)n1-c1cc(F)cc(F)c1` (centres undefined), the half-maximal inhibitory concentration (IC50) in [3] came out at 0.012 µM.

In turn, `CC(=O)N1N=C(c2ccc(Nc3ncnc4c3c(C)nn4-c3ccccc3)cc2)CC1c1ccc(Cl)cc1` (centres undefined) returned an IC50 in the data set on MCF7 of 14.9 µM.

As for `OCCn1cnc2c(-c3cn[nH]c3)nc(N3CCOCC3)nc21`, in data set [4], the IC50 was below 0.03 µM.

As for `C/C=N/Nc1ccc(Nc2nc(NCC)c3nc[nH]c3n2)cc1`, in data set [5], the IC50 came to 0.005 µM.

Compound `NC(=O)C1C2C=CC(C2)C1Nc1nc(Nc2cccc(S(N)(=O)=O)c2)nc2[nH]cnc12` (centres undefined) came in with an IC50 against Janus Kinase (JAK) below 0.001 µM.

In the case of `CC(C)Oc1cccc(Nc2nc(NC3C4C=CC(C4)C3C(N)=O)c3nc[nH]c3n2)c1` (centres undefined), on Janus Kinase (JAK), the IC50 was below 0.001 µM.

`c1nc2c(NC3CC4CCC3C4)nc(Nc3ccc(N4CCCCC4)cc3)nc2[nH]1` (centres undefined) returned an IC50 on Janus Kinase (JAK) below 0.001 µM.

With `CCC(CO)Nc1nc(NCc2cc(C)ccc2O)c2ncn(C(C)C)c2n1` (centres undefined), at CDK9/Cyclin T, the IC50 is 0.006 µM.

`CC(C)Nc1nc(Nc2ccc(S(=O)(=O)N(C)C)cc2)nc2[nH]cnc12`: the IC50 in [5] is 0.005 µM.

Regarding `Cc1nc(N)ncc1-c1nc(N2CCOCC2)c2nc(C(C)(C)C)n(CCO)c2n1`, in [6], the IC50 is below 0.01 µM.

In turn, `COc1cc(Nc2nc(NC3C4C=CC(C4)C3C(N)=O)c3nc[nH]c3n2)cc(OC)c1OC` (centres undefined) gave a half-maximal inhibitory concentration (IC50) against Janus Kinase (JAK) below 0.001 µM.

In the case of `CC[C@@H](CO)Nc1nc(NCc2ccccc2O)c2ncn(C(C)C)c2n1`, in data set [2], the EC50 at 72 h amounted to 1.59 µM.

As for `CC(C)(C)c1nc2c(N3CCOCC3)nc(-c3cccc4[nH]ccc34)nc2n1CCO`, the IC50 in [6] was below 0.01 µM.

In the case of `CC(C)(C)Nc1nc(Nc2ccc(CC(=O)O)cc2)nc2[nH]cnc12`, the IC50 in [5] was 0.005 µM.

Take `Cc1nn(-c2ccccc2)c2ncn(N)c(=O)c12`: half-maximal inhibition in the data set with MCF7 (IC50) required 89.2 µM.

For the compound `COc1cccc(CNc2nc(NC3CCCCC3N)nc3c2ncn3C(C)C)c1O` (centres undefined), at CDK9/Cyclin T, the IC50 was found to be 0.007 µM.

`COc1cccc(CNc2nc(NC3CCC(N)CC3)nc3c2ncn3C(C)C)c1O` (centres undefined): the IC50 was 0.009 µM at CDK9/Cyclin T and 0.02 µM in [7].

Consider `NC(=O)[C@@H]1[C@H](Nc2nc(Nc3cccc(S(N)(=O)=O)c3)nc3[nH]cnc23)[C@H]2C=C[C@@H]1C2`, for which the IC50 on Janus Kinase (JAK) was below 0.001 µM.

`Cc1nn(-c2ccccc2)c2ncnc(Nc3ccc(C(=O)N4CCOCC4)cc3)c12` showed an IC50 in the data set on MCF7 of 14.9 µM.

Regarding `CS(=O)(=O)N1CCN(CCn2cnc3c(-n4c(C(F)F)nc5ccccc54)nc(N4CCOCC4)nc32)CC1`, the IC50 in data set [4] was below 0.03 µM.

With `CC(C)n1cnc2c(NCc3cc(F)ccc3O)nc(NC3CCC(N)CC3)nc21` (centres undefined), the IC50 on CDK9/Cyclin T was 0.008 µM; in data set [7] it was 0.02 µM.

The compound `O=C(Nc1ccc(-c2nc(C3=CCOCC3)c3cnn(CC(F)(F)F)c3n2)cc1)Nc1cccnc1` yielded a 50% inhibitory concentration (IC50) in data set [8] of 0.0024 µM.

For `CC(C)[C@H](CO)Nc1nc(Nc2ccc(Cl)c(C(=O)O)c2)c2ncn(C(C)C)c2n1`, the half-maximal inhibitory concentration (IC50) in data set [1] is below 0.05 µM.

`CC(C)[C@H](CO)Nc1nc(Nc2cccc(Cl)c2)c2ncn(C(C)C)c2n1` [PURVALANOLA]: the IC50 in data set [1] is below 0.05 µM.
